According to publication PMC8476755 (Frontiers in Chemistry, 2021):
Residue numbers refer to the chain shown, from its start.

Experiments:
[1] = tested on: four human GABA transporters (GATs); experiment: [3H]GABA uptake assay, single concentration screening at the four human GATs; format: cell-based; details: 100 µM test compound, n = 2
Procedure: (§1) Based on this finding, only 2 and bicyclo-GABA were further investigated pharmacologically.
(§2) (D–E) Gaddum-Schild analysis of bicyclo-GABA, yielding a Schild slope of 1.02 indicative of competitive inhibition with a calculated K B of 0.47 µM (n = 4). (F) Characterization of bicyclo-GABA and 2 at α1β2γ2 GABAA receptors by use of the FMP assay. […] Data are presented as means ± S.E.M.
(§3) Briefly, cells were seeded in white 96-well plates (White Opaque Tissue Culture (TC) plated 96-well Microplate) pre-coated with PDL. Medium was removed on the following day and cells washed with 100 µL/well assay buffer (HBSS supplemented with 20 mM HEPES, 1 mM CaCl2 and 1 mM MgCl2, pH 7.4). […] The cells were washed 3 times with 100 µL/well ice-cold assay buffer, 150 µL/well MicroScint™20 was subsequently added before the plate was shaken for at least 1 h. The plate was counted in a Packard TopCounter microplate scintillation counter (PerkinElmer) for 3 min per well. Typical counts per minute for the different GATs were in the range of: wt hBGT1 (100–4,000), BGT1 Q299 (100–1,000), hBGT E52Y (150–500), BGT1 E52A (150–8,000), BGT1 E52A + Q299L (150–500), wt GAT3 (200–8,000), GAT3 L314Q (100–1,500), wt GAT1 (100–10,000) and wt GAT2 (150–7,500). […] Data presented is the pooled data of at least three independent experiments with three technical replicates if not stated otherwise in figure legends. Concentration–response curves were fitted by non-linear regression to the sigmoidal concentration-response model with GraphPad Prism (version 9.0.0, GraphPad Software, San Diego, CA, United States) as described ([Lie et al., 2020]).

[2] = tested on: BGT1; set-up: method as in Kobayashi et al., 2014; details: ref Kobayashi et al., 2014, cited from earlier work
[3] = biological target: T1, BGT1 (Homo sapiens, UniProt P48065); experiment: [3H]GABA uptake assay, single concentration screening; format: cell-based; details: read-out: Percentage inhibition of [3H]GABA uptake at BGT1, 100 µM test compound; n = 2
T1 construct: expressed in transfected cells
T1 sequence (P48065 1-614): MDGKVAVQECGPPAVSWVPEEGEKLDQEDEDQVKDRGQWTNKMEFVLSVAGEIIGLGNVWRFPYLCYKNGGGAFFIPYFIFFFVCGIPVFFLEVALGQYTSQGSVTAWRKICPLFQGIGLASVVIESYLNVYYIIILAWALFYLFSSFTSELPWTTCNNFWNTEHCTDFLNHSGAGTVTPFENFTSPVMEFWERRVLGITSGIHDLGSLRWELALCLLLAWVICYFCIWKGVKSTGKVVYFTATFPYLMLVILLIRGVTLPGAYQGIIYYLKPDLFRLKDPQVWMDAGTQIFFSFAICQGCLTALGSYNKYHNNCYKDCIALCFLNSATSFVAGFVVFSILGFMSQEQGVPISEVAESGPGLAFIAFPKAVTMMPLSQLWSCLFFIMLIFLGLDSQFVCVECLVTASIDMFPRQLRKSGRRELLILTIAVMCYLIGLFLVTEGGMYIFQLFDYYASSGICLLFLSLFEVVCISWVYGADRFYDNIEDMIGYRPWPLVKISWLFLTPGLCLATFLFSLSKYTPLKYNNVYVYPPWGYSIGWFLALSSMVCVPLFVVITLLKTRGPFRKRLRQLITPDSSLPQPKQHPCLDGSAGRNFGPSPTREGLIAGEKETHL
Procedure: as §1, §2
as §3, with “Concentration–response curves were fitted by non-linear regression to the sigmoidal concentration-response model with GraphPad Prism (version 9.0.0, GraphPad Software, San Diego, CA, United States) as described ([Lie et al., 2020]).” left out

[4] = biological target: T2, BGT1 E52A (Homo sapiens, UniProt P48065, E52A); experiment: [3H]GABA uptake assay, transient expression in tsA201 cells; format: cell-based; details: BGT1 E52A vs BGT1 wt
T2 construct: expressed in transfected cells; host or cells: tsA201 (transformed HEK293), transient
T2 sequence (P48065 1-614 E52A): T1 sequence (P48065 1-614) with E52A
Procedure: The residue Q299 in human BGT1 corresponds to leucine in all other GATs (human, rat, mouse), while E52 corresponds to tyrosine in GAT1 (human, rat, mouse) but is conserved among GAT2, GAT3 and BGT1 (human, rat, mouse) (Figure 6A) ([Kickinger et al., 2019]).
(§4) The tsA201 cell line (a transformed HEK293 cell line), the Flp-In CHO cell lines stably expressing human (h) GATs and the HEK293 cell line stably expressing human α1β2γ2 GABAA receptors have been described previously and were cultured accordingly ([Al-Khawaja et al., 2014]; [Falk-Petersen et al., 2020]). The tsA201 cell line used for transient expression of hGATs was transfected with DNA constructs (8 μg per 10 cm plate) using 40 μL PolyFect transfection reagent according to the manufacturer’s protocol (Qiagen).
as §3, with “well.” for “well. Typical counts per minute for the different GATs were in the range of: wt hBGT1 (100–4,000), BGT1 Q299 (100–1,000), hBGT E52Y (150–500), BGT1 E52A (150–8,000), BGT1 E52A + Q299L (150–500), wt GAT3 (200–8,000), GAT3 L314Q (100–1,500), wt GAT1 (100–10,000) and wt GAT2 (150–7,500).”

[5] = biological target: T3, GAT3 L314Q (Homo sapiens, UniProt P48066, L314Q); experiment: as above; format: cell-based; details: GAT3 L314Q, tsA201 cells; read-out: pIC50 ± S.E.M. (converted)
T3 construct: expressed in transfected cells; host or cells: tsA201 (transformed HEK293), transient
T3 sequence (P48066 1-632 L314Q): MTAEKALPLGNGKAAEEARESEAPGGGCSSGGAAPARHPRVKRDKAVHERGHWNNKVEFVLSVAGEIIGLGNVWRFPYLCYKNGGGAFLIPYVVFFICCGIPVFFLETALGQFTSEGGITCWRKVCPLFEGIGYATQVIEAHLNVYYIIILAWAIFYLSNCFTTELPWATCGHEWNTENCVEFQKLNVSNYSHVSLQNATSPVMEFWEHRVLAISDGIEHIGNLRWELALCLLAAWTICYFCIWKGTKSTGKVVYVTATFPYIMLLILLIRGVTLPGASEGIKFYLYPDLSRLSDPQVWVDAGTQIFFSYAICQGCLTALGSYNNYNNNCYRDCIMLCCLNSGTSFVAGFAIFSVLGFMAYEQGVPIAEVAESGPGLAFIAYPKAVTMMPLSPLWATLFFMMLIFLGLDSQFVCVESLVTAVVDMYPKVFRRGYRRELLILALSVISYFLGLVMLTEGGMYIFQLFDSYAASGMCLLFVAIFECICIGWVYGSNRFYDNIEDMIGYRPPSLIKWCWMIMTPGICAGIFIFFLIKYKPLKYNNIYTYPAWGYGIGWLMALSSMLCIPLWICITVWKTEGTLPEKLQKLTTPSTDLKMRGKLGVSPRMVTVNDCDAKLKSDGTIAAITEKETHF
From the text: According to the docking and MD results, the sidechains of Q299 and E52 were identified to form crucial interactions with the protonated nitrogen of both compounds. The residue Q299 in human BGT1 corresponds to leucine in all other GATs (human, rat, mouse), while E52 corresponds to tyrosine in GAT1 (human, rat, mouse) but is conserved among GAT2, GAT3 and BGT1 (human, rat, mouse) (Figure 6A) ([Kickinger et al., 2019]). Thus, we engineered the corresponding mutants Q299L and E52Y in human BGT1 and predicted that the introduction of these mutations would lead to decreased activity of both bicyclo-GABA and 2 due to the loss of essential hydrogen bond interactions. Furthermore, we wanted to test the double mutant E52Y + Q299L. However, in a previous study this mutant was proven non-functional ([Kickinger et al., 2020]). Instead, we generated the double mutant E52A + Q299L as well as the single mutant E52A. For these mutants we predicted decreased activity. Lastly, the reciprocal mutation to BGT1 Q299L was created in GAT3 (L314Q), ideally expecting a gain-of-function.
FIGURE 6 (A) Pocket alignment of the orthosteric site of the four GAT subtypes colored according to the default ClustalX color scheme ([Larkin et al., 2007]). The pocket was defined as all corresponding GAT residues (15 in total) that are within a distance of 4.5 Å of the co-crystallized ligand leucine in the homologous LeuT crystal structure (PDB ID 2A65) ([Yamashita et al., 2005]) according to the alignment by Kickinger et al. ([Kickinger et al., 2019]). The mutated residues in BGT1 and the corresponding residues in GAT1-3 are indicated by a red box. The numbering of all residues within the orthosteric pocket can be found in the Supplementary Table S1.
as §4, with “(Qiagen). All DNA constructs used have been described previously: wt hBGT1, wt GAT3 ([Kvist et al., 2009]), BGT1 Q299, GAT3 L314Q ([Jørgensen et al., 2017]), hBGT E52Y, BGT1 E52A and BGT1 E52A + Q299L ([Kickinger et al., 2020]).” for “(Qiagen).”
as §3

## NC1CC1(CC(=O)O)c1ccccc1 (centres unmarked) [4c]
[1]
  Percentage inhibition of [3H]GABA uptake at any of the GATs: < 15%

## NC1CC1CC(=O)O [compound 1, (2S,3R)-4-amino-3,4-methanobutyric acid]
[2]
  Less potent than bicyclo-GABA: 9 times
[2]; subtype-selectivity BGT1 vs GAT3
  Higher activity for BGT1 than GAT3: three times higher activity

## CN(C)[C@@]12CC[C@H](C(=O)O)[C@@H]1C2 [compound 3]
[1]
  Percentage inhibition of [3H]GABA uptake at any of the GATs: < 15%

## CCC1(CC(=O)O)CC1N (centres unmarked) [4b]
[1]
  Percentage inhibition of [3H]GABA uptake at any of the GATs: < 15%

## CC1(CC(=O)O)CC1N (centres unmarked) [4a]
[3]
  inhibition at 100 µM: 68%

## NCCCC(=O)O [GABA, γ-aminobutyric acid]
[4]
  Increase in activity compared to wildtype: not significantly altered
[5]
  IC50: 5.01 µM
